# Source: patent US11332470B2, “CXCR4 inhibitors and uses thereof” (X4 Pharmaceuticals, Inc., priority 2016, dated 2022)
# Experiments:
# CXCR4 (U87.CXCR4 cells) = biological target: T1, CXCR4 (U87.CXCR4 cells) (Homo sapiens, UniProt P61073); experiment: Intracellular CXCL-12-induced calcium mobilization assay (FLIPR); format: cell-based; conditions: CXCL-12 25-50 ng/mL, read-out: IC50 CXCL-12 Ca2+ flux U87.CXCR4+
# T1 construct: expressed in transfected cells; host or cells: U87 (U87.CXCR4)
# Description: Intracellular CXCL-12-Induced Calcium Mobilization Assay
# Intracellular calcium mobilization induced by chemokines or chemokine-derived peptides were evaluated using a calcium responsive fluorescent probe and a FLIPR system. The CXCR-4 transfected U87 cell line (U87.CXCR4) cells were seeded in gelatine-coated black-wall 96-well plates at 20,000 cells per well and incubated for 12 hours. Cells were then loaded with the fluorescent calcium probe Fluo-2 acetoxymethyl at 4 μM final concentration in assay buffer (Hanks' balanced salt solution with 20 mM HEPES buffer and 0.2% bovine serum albumin, pH 7.4) for 45 min at 37° C. The intracellular calcium mobilization induced by the CXCL-12 (25-50 ng/mL) was then measured at 37° C. by monitoring the fluorescence as a function of time in all the wells simultaneously using a fluorometric imaging plate reader (FLIPR Tetra, Molecular Devices).
# [1] = biological target: T2, CXCR4 (Jurkat cells expressing CXCR4) (Homo sapiens, UniProt P61073); experiment: Chemokine (CXCL12-AF647) binding inhibition assay; conditions: CXCL12-AF647 25 ng/mL, read-out: IC50 CXCL-12 binding Jurkat
# T2 construct: Jurkat cells expressing CXCR4; endogenous in cells; host or cells: Jurkat
# T2 sequence (P61073 whole entry): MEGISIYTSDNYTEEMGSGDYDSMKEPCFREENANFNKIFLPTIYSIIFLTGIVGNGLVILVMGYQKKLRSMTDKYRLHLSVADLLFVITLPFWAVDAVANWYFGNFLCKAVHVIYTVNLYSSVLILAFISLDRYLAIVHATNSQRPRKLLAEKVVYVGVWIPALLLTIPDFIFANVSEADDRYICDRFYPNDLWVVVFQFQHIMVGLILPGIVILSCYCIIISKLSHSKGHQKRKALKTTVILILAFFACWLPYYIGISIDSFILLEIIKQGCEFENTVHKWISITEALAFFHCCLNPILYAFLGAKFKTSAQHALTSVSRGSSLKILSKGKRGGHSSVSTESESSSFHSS
# Description: Chemokine (CXCL12-AF647) Binding Inhibition Assay
# Jurkat cells expressing CXCR4 were washed once with assay buffer (Hanks' balanced salt solution with 20 mM HEPES buffer and 0.2% bovine serum albumin, pH 7.4) and then incubated for 15 min at room temperature with the test compounds diluted in assay buffer at dose-dependent concentrations. Subsequently, CXCL12-AF647 (25 ng/mL) was added to the compound-incubated cells. The cells were incubated for 30 min at room temperature. Thereafter, the cells were washed twice in assay buffer, fixed in 1% paraformaldehyde in PBS, and analyzed on the FL4 channel of a FACSCalibur flow cytometer equipped with a 635-nm red diode laser (Becton Dickinson, San Jose, Calif., USA).
# The percentages of inhibition of CXCL12-AF647 binding were calculated according to the formula: [1−((MFI−MFINC)/(MFIPC−MFINC))]×100 where MFI is the mean fluorescence intensity of the cells incubated with CXCL12-AF647 in the presence of the inhibitor, MFINC is the mean fluorescence intensity measured in the negative control (i.e., autofluorescence of unlabeled cells), and MFIPC is the mean fluorescence intensity of the positive control (i.e., cells exposed to CXCL12-AF647 alone).
# in vitro = conditions: human, Caco-2, pH 7.4
# Description: The goal of this assay was to evaluate the intestinal absorption potential of drug candidates using Caco-2 cell lines.
# 1. Prewarm Prewarm HBSS Buffer in 37° C. water bath
# 2. Sonicate Take compounds from −20° C., sonicate for a few minutes (no less than 1 minute)
# • Donor solution buffer: For A-to-B Direction: HBSS buffer with 0.3% DMSO and 5 μM LY: add 150 μL DMSO and 50 μL LY (5 mM) into 50 ml HBSS buffer (pH 7.4). HBSS buffer with 0.1% DMSO and 5 μM LY: add 50 μL DMSO and 50 μL LY (5 mM) into 50 mL HBSS buffer (pH 7.4). For B-to-A Direction: HBSS buffer with 0.3% DMSO: add 150 μL DMSO into 50 ml HBSS buffer (pH 7.4). HBSS buffer with 0.1% DMSO: add 50 μL DMSO into 50 ml HBSS buffer (pH 7.4). Receiver Solution Buffer: For A-to-B Direction: Prepare HBSS buffer with 0.4% DMSO: add 200 μL DMSO into 50 ml HBSS buffer (pH 7.4). For B-to-A Direction: Prepare HBSS buffer with 0.4% DMSO and 5 μM LY: add 200 μL DMSO and 50 μL LY (5 mM) into 50 ml HBSS buffer (pH 7.4).
# 4. Measure TEER Take cell culture plate out of incubator, wash the cell monolayers with HBSS buffer, and then measure TEER values at Rm temperature. 5. Centrifuge Centrifuge the compound solution (from step 3) at 4000 rpm for 5 min before loading to donor chambers. 6. Dosing Add solution based on the volumes listed in the following table (make sure to take extra 100 μL of donor sample for TO as Backup).
# 7. Apical LYT0 samples To determine LY concentration in the apical chamber, take 100 μL sample from apical chambers into an opaque plate for LYT0. 8. Prewarm Prewarm apical and basolateral plates at 37° C. for about 5 min, then begin transport by placing the apical plate onto basolateral plate. 9. Incubation Keep the plates in incubator at 37° C. for 90 min. 10.
# Prepare Working Solution in MeOH/H2O (1:1)
# • Prepare 1×solution: 3 μL (20×)+57 μL of 0.4% DMSO HBSS+60 μL ACN with IS (Osalmid or Imipramine)−120 μL (1×) 11. Transport termination Separate the apical plate from the basolateral plate after 90-min incubation. 12. Measure LY Take 100 μL samples from basolateral plate to an opaque plate as LYT90. 13. Measure LY concentrations for LYT0 and LYT90 by Fluorometer (at excitation of 485 nm/emission of 535 nm). 14.
# Study details: Test concentration 10 μM
# Test systems: Caco-2/HBSS solution
# Incubation conditions: 0, 90 min at 37° C.
# Sample size: Duplicates (n=2)
# Bioanalytical method: LC-MS/MS
# For Millicell-24 Cell Culture Plates: surface area of the membrane=0.7 cm^2, VA=0.8 mL (A-to-B) or 0.4 mL (B-to-A)
# The compound numbers correspond to the compound numbers in Table 1.
# T1 sequence (P61073 whole entry): as above
IC50 (CXCR4 (U87.CXCR4 cells)),IC50 [1],"Papp A→B at 90 min, 10 μM (in vitro)","Papp B→A at 90 min, 10 μM (in vitro)","efflux ratio at 90 min, 10 μM (in vitro)",Compound
≥ 1000 nM,100 to 1000 nM,0.1 to 10 ×10⁻⁶ cm/s,10 to 30 ×10⁻⁶ cm/s,0.1 to 10,CN1CCN(c2c(CN3CCCC3c3ncc[nH]3)nc3ccccn23)CC1 (stereo not drawn) [Compound I-68]
0.01 to 100 nM,0.01 to 100 nM,0.1 to 10 ×10⁻⁶ cm/s,10 to 30 ×10⁻⁶ cm/s,10 to 30,CN1CCN(c2c(CN3CCCC3c3nccn3C)nc3ccccn23)CC1 (stereo not drawn) [Compound I-69]
≥ 1000 nM,100 to 1000 nM,10 to 30 ×10⁻⁶ cm/s,> 30 ×10⁻⁶ cm/s,0.1 to 10,c1ccc(C2CCCN2Cc2ncccc2-n2ccnc2)nc1 (stereo not drawn) [Compound I-75]
0.01 to 100 nM,0.01 to 100 nM,10 to 30 ×10⁻⁶ cm/s,0.1 to 10 ×10⁻⁶ cm/s,0.1 to 10,CN1CCN(c2c(CN3CCCC3c3ccc(F)cn3)nc3ccccn23)CC1 (stereo not drawn) [Compound I-76]
100 to 1000 nM,100 to 1000 nM,10 to 30 ×10⁻⁶ cm/s,> 30 ×10⁻⁶ cm/s,0.1 to 10,c1ccc(C2CCCN2Cc2nc3ccccn3c2-c2ccncc2)nc1 (stereo not drawn) [Compound I-80]
≥ 1000 nM,100 to 1000 nM,10 to 30 ×10⁻⁶ cm/s,> 30 ×10⁻⁶ cm/s,0.1 to 10,N#CCCc1c(CN2CCCC2c2ccccn2)nc2ccccn12 (stereo not drawn) [Compound I-82]
≥ 1000 nM,100 to 1000 nM,0.1 to 10 ×10⁻⁶ cm/s,> 30 ×10⁻⁶ cm/s,0.1 to 10,Cc1cccnc1C1CCCN1Cc1cn2c(CCC#N)cccc2n1 (stereo not drawn) [Compound I-83]
≥ 1000 nM,≥ 1000 nM,0.1 to 10 ×10⁻⁶ cm/s,> 30 ×10⁻⁶ cm/s,0.1 to 10,N#CCCc1cccc2nc(CN3CCCC3c3ccccn3)cn12 (stereo not drawn) [Compound I-84]
≥ 1000 nM,100 to 1000 nM,0.1 to 10 ×10⁻⁶ cm/s,> 30 ×10⁻⁶ cm/s,0.1 to 10,CN1CCN(c2c(CN3CCCC3c3ccccn3)nc3ccccn23)CC1=O (stereo not drawn) [Compound I-85]
≥ 1000 nM,≥ 1000 nM,0.1 to 10 ×10⁻⁶ cm/s,10 to 30 ×10⁻⁶ cm/s,10 to 30,O=C1CN(c2c(CN3CCCC3c3ccccn3)nc3ccccn23)CCN1 (stereo not drawn) [Compound I-86]
≥ 1000 nM,100 to 1000 nM,10 to 30 ×10⁻⁶ cm/s,10 to 30 ×10⁻⁶ cm/s,0.1 to 10,Cc1cccnc1C1CCCN1Cc1nccn1Cc1ccncc1 (stereo not drawn) [Compound I-87]
≥ 1000 nM,100 to 1000 nM,10 to 30 ×10⁻⁶ cm/s,10 to 30 ×10⁻⁶ cm/s,0.1 to 10,Cc1cccnc1C1CCCN1Cc1nccn1Cc1cccnc1 (stereo not drawn) [Compound I-88]
≥ 1000 nM,100 to 1000 nM,10 to 30 ×10⁻⁶ cm/s,> 30 ×10⁻⁶ cm/s,0.1 to 10,Cc1cccnc1C1CCCN1Cc1nccn1Cc1ccccn1 (stereo not drawn) [Compound I-89]
≥ 1000 nM,100 to 1000 nM,> 30 ×10⁻⁶ cm/s,> 30 ×10⁻⁶ cm/s,0.1 to 10,c1ccc(C2CCCN2Cc2nc3ccccn3c2N2CCOCC2)nc1 (stereo not drawn) [Compound I-91]

# The next lines start with the compound.
Compound,IC50 (CXCR4 (U87.CXCR4 cells)),IC50 [1],"Papp A→B at 90 min, 10 μM (in vitro)","Papp B→A at 90 min, 10 μM (in vitro)","efflux ratio at 90 min, 10 μM (in vitro)"
CN1CCN(c2cccc3[nH]c(CN4CCCC4c4nccn4C)nc23)CC1 (stereo not drawn) [Compound I-51],≥ 1000 nM,100 to 1000 nM,0.1 to 10 ×10⁻⁶ cm/s,10 to 30 ×10⁻⁶ cm/s,0.1 to 10
Cc1cccnc1C1CCCN1Cc1nccn1CC1CCN(C)CC1 (stereo not drawn) [Compound I-52],0.01 to 100 nM,0.01 to 100 nM,0.1 to 10 ×10⁻⁶ cm/s,10 to 30 ×10⁻⁶ cm/s,0.1 to 10
Cc1cccnc1C1CCCN1Cc1ncccc1N1CCN(C)CC1 (stereo not drawn) [Compound I-53],≥ 1000 nM,0.01 to 100 nM,0.1 to 10 ×10⁻⁶ cm/s,10 to 30 ×10⁻⁶ cm/s,0.1 to 10
CN1CCC(n2c(CN3CCCC3c3ccccn3)nc3ccccc32)CC1 (stereo not drawn) [Compound I-54],100 to 1000 nM,0.01 to 100 nM,10 to 30 ×10⁻⁶ cm/s,10 to 30 ×10⁻⁶ cm/s,0.1 to 10
CN1CCC(n2ccnc2CN2CCCC2c2ccccn2)CC1 (stereo not drawn) [Compound I-55],≥ 1000 nM,100 to 1000 nM,0.1 to 10 ×10⁻⁶ cm/s,10 to 30 ×10⁻⁶ cm/s,0.1 to 10
CN1CCN(c2cccnc2CN2CCCC2c2ccccn2)CC1 (stereo not drawn) [Compound I-56],≥ 1000 nM,100 to 1000 nM,10 to 30 ×10⁻⁶ cm/s,10 to 30 ×10⁻⁶ cm/s,0.1 to 10
c1ccc(C2CCCN2Cc2nc3ccccn3c2N2CCN(C3CC3)CC2)nc1 (stereo not drawn) [Compound I-57],100 to 1000 nM,0.01 to 100 nM,10 to 30 ×10⁻⁶ cm/s,10 to 30 ×10⁻⁶ cm/s,0.1 to 10
CN1CCN(c2c(CN3CCCC3c3ncccc3F)nc3ccccn23)CC1 (stereo not drawn) [Compound I-60],0.01 to 100 nM,0.01 to 100 nM,10 to 30 ×10⁻⁶ cm/s,10 to 30 ×10⁻⁶ cm/s,0.1 to 10
CN1CCN(c2c(CN3CCCC3c3ccccn3)nc3c(F)cccn23)CC1 (stereo not drawn) [Compound I-61],100 to 1000 nM,0.01 to 100 nM,10 to 30 ×10⁻⁶ cm/s,10 to 30 ×10⁻⁶ cm/s,0.1 to 10
CN1CCN(c2c(CN3CCCC3c3ccccn3)nc3cc(F)ccn23)CC1 (stereo not drawn) [Compound I-62],0.01 to 100 nM,0.01 to 100 nM,0.1 to 10 ×10⁻⁶ cm/s,10 to 30 ×10⁻⁶ cm/s,0.1 to 10
CN1CCN(c2c(CN3CCCC3c3ccccn3)nc3cccc(F)n23)CC1 (stereo not drawn) [Compound I-64],100 to 1000 nM,0.01 to 100 nM,0.1 to 10 ×10⁻⁶ cm/s,10 to 30 ×10⁻⁶ cm/s,0.1 to 10
c1ccc(C2CCCN2Cc2ccccc2-n2cccn2)nc1 (stereo not drawn) [Compound I-65],≥ 1000 nM,100 to 1000 nM,> 30 ×10⁻⁶ cm/s,> 30 ×10⁻⁶ cm/s,0.1 to 10
CN1CC=C(c2c(CN3CCCC3c3ccccn3)nc3ccccn23)CC1 (stereo not drawn) [Compound I-79],0.01 to 100 nM,0.01 to 100 nM,0.1 to 10 ×10⁻⁶ cm/s,> 30 ×10⁻⁶ cm/s,0.1 to 10
